Test results published in ChEMBL document CHEMBL1201862, “PubChem BioAssay data set” (2004).
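Cells were grown in 96-well plates and exposed to each compound for 48 hours at five concentrations; endpoints were interpolated linearly between bracketing concentrations, or set to the highest concentration if not reached. GI50 = concentration required for 50% inhibition of growth.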 Active and inactive are the calls of the source. No stated cut-off is given here; in the data, active = GI50 up to about 1.1 µM and inactive = higher.

What was measured:
Test in all cases: DTP human tumour cell line panel, 48 h
786-0 = tested on: 786-0
A498 = tested on: A498
A549 = tested on: A549
ACHN = tested on: ACHN
CAKI-1 = tested on: CAKI-1
CCRF-CEM = tested on: CCRF-CEM
COLO 205 = tested on: COLO 205
DLD-1 = tested on: DLD-1
DMS-114 = tested on: DMS-114
DMS-273 = tested on: DMS-273
EKVX = tested on: EKVX
HCT-116 = tested on: HCT-116
HCT-15 = tested on: HCT-15
HL-60 = tested on: HL-60
HOP-18 = tested on: HOP-18
HOP-62 = tested on: HOP-62
HOP-92 = tested on: HOP-92
HT-29 = tested on: HT-29
IGROV-1 = tested on: IGROV-1
K562 = tested on: K562
KM12 = tested on: KM12
LOX IMVI = tested on: LOX IMVI
LXFL 529 = tested on: LXFL 529
M14 = tested on: M14
M19-MEL = tested on: M19-MEL
MOLT-4 = tested on: MOLT-4
Malme-3M = tested on: Malme-3M
NCI-H23 = tested on: NCI-H23
NCI-H460 = tested on: NCI-H460
NCI-H522 = tested on: NCI-H522
OVCAR-3 = tested on: OVCAR-3
OVCAR-4 = tested on: OVCAR-4
OVCAR-5 = tested on: OVCAR-5
OVCAR-8 = tested on: OVCAR-8
RPMI-8226 = tested on: RPMI-8226
RXF 393 = tested on: RXF 393
SF-268 = tested on: SF-268
SF-295 = tested on: SF-295
SF-539 = tested on: SF-539
SK-MEL-28 = tested on: SK-MEL-28
SK-MEL-2 = tested on: SK-MEL-2
SK-MEL-5 = tested on: SK-MEL-5
SK-OV-3 = tested on: SK-OV-3
SN12C = tested on: SN12C
SNB-19 = tested on: SNB-19
SNB-75 = tested on: SNB-75
SNB-78 = tested on: SNB-78
SR = tested on: SR
SW-620 = tested on: SW-620
TK-10 = tested on: TK-10
U-251 = tested on: U-251
UACC-257 = tested on: UACC-257
UACC-62 = tested on: UACC-62
UO-31 = tested on: UO-31
XF498 = tested on: XF498

Structure (SMILES): CCN(CC)CCn1nc2c3c(c(NCCN)ccc31)Sc1cc(O)ccc1-2
- GI50 (786-0): 741 nM (active)
- GI50 (A498): 1360 nM (inactive)
- GI50 (A549): 176 nM (active)
- GI50 (ACHN): 579 nM (active)
- GI50 (CAKI-1): 516 nM (active)
- GI50 (CCRF-CEM): 166 nM (active)
- GI50 (COLO 205): 865 nM (active)
- GI50 (DLD-1): 1250 nM (inactive)
- GI50 (DMS-114): 310 nM (active)
- GI50 (DMS-273): 417 nM (active)
- GI50 (EKVX): 1400 nM (inactive)
- GI50 (HCT-116): 327 nM (active)
- GI50 (HCT-15): 3030 nM
- GI50 (HL-60): 96.2 nM (active)
- GI50 (HOP-18): 1620 nM (inactive)
- GI50 (HOP-62): 416 nM (active)
- GI50 (HOP-92): 940 nM (active)
- GI50 (HT-29): 507 nM (active)
- GI50 (IGROV-1): 505 nM (active)
- GI50 (K562): 314 nM (active)
- GI50 (KM12): 615 nM (active)
- GI50 (LOX IMVI): 146 nM (active)
- GI50 (LXFL 529): 178 nM (active)
- GI50 (M14): 455 nM (active)
- GI50 (M19-MEL): 347 nM (active)
- GI50 (MOLT-4): 39.6 nM (active)
- GI50 (Malme-3M): 1070 nM (active)
- GI50 (NCI-H23): 451 nM (active)
- GI50 (NCI-H460): 71.5 nM (active)
- GI50 (NCI-H522): 175 nM (active)
- GI50 (OVCAR-3): 2430 nM (inactive)
- GI50 (OVCAR-4): 528 nM (active)
- GI50 (OVCAR-5): 1560 nM (inactive)
- GI50 (OVCAR-8): 535 nM (active)
- GI50 (RPMI-8226): 377 nM (active)
- GI50 (RXF 393): 1140 nM (inactive)
- GI50 (SF-268): 493 nM (active)
- GI50 (SF-295): 861 nM (active)
- GI50 (SF-539): 406 nM (active)
- GI50 (SK-MEL-28): 1380 nM (inactive)
- GI50 (SK-MEL-2): 1280 nM (inactive)
- GI50 (SK-MEL-5): 733 nM (active)
- GI50 (SK-OV-3): 1250 nM (inactive)
- GI50 (SN12C): 372 nM (active)
- GI50 (SNB-19): 611 nM (active)
- GI50 (SNB-75): 813 nM (active)
- GI50 (SNB-78): 877 nM (active)
- GI50 (SR): 201 nM (active)
- GI50 (SW-620): 351 nM (active)
- GI50 (TK-10): 2220 nM (inactive)
- GI50 (U-251): 254 nM (active)
- GI50 (UACC-257): 1840 nM (inactive)
- GI50 (UACC-62): 371 nM (active)
- GI50 (UO-31): 12300 nM (inactive)
- GI50 (XF498): 128 nM (active)
